pEC50: −log10 of the molar value. Records with an inconclusive call do not appear.
Biological target: Luciferin 4-monooxygenase (Photinus pyralis) (UniProt P08659)
Assay: Photinus pyralis luciferase translation or activity inhibitors, H4 neuroglioma cells, confirmatory dose response (AID 2458)
Settings: luciferase luminescence

Chain of Luciferin 4-monooxygenase (Photinus pyralis) (P08659 whole entry, looked up): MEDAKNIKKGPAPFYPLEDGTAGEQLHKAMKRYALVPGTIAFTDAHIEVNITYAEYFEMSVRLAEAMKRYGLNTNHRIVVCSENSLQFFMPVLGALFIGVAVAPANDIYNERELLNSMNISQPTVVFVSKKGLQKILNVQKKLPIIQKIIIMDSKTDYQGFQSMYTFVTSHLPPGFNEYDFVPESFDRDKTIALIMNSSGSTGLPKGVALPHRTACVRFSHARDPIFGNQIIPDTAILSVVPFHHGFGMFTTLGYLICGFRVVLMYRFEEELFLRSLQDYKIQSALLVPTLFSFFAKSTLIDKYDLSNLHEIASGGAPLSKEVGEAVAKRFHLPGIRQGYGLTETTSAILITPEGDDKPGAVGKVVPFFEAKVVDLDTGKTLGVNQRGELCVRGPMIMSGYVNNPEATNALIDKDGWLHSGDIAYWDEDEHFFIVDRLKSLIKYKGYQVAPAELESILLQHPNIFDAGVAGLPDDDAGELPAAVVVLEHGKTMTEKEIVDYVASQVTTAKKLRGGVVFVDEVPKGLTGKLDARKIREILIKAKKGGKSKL

## COc1ccc(O)c2c(=O)c3c(OC)cc4c(c3oc12)C1C=COC1O4 (stereo unspecified)
  pEC50: 6.28
